Data on 16 compounds can be found in ChEMBL document CHEMBL4715826, “Selective PPARδ Modulators Improve Mitochondrial Function: Potential Treatment for Duchenne Muscular Dystrophy (DMD)” (ACS Med Chem Lett, 2018).

Series [1] can be described thus: Half life in CD-1 mouse at 3 mg/kg, iv. The format is ADME, organism-based. The conditions noted are these: in vivo.
The nature of series [2]: AUC in CD-1 mouse at 3 mg/kg, iv. In kind it is ADME, organism-based. Details: dose 3 mg/kg. The note with it: in vivo.
The nature of series [3]: Clearance in CD-1 mouse at 3 mg/kg, iv. In kind it is ADME, organism-based. The note with it: in vivo.
In series [4] the target is T1, Peroxisome proliferator-activated receptor gamma (Homo sapiens, UniProt P37231).
T1 sequence (P37231 whole entry): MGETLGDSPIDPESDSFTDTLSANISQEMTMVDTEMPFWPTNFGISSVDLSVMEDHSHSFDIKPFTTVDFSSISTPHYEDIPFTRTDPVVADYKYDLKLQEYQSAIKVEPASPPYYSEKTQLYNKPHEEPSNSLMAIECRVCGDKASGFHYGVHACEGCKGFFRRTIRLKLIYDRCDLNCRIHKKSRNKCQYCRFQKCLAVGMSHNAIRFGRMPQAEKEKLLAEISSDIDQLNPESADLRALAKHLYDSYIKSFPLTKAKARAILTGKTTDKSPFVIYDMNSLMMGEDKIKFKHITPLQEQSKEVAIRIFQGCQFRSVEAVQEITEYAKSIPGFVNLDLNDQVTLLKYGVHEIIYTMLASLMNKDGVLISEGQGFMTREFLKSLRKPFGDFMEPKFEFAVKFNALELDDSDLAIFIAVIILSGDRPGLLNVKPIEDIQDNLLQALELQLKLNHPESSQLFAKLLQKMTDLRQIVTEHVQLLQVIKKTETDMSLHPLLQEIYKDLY
Kind of series: Modulator activity at GAL4-fused human PPARgamma LBD (unknown origin) transfected in African green monkey CV1 cells assessed as receptor transactivation by luciferase reporter gene assay. The format is cell-based, CV-1.

A short description of series [5]: Selectivity index, ratio of EC50 for transactivation of GAL4-fused PPARalpha LBD (unknown origin) transfected in CV1 cells to EC50 for transactivation of GAL4-fused human PPARdelta LBD (128 to residue at C-terminus) transfected in African green monkey CV1 cells by luciferase reporter gene assay. A general note: A reporter such as luciferase makes a cellular process visible.

Series [6] has as its target T2, Peroxisome proliferator-activated receptor alpha (Homo sapiens, UniProt Q07869).
T2 sequence (Q07869 whole entry): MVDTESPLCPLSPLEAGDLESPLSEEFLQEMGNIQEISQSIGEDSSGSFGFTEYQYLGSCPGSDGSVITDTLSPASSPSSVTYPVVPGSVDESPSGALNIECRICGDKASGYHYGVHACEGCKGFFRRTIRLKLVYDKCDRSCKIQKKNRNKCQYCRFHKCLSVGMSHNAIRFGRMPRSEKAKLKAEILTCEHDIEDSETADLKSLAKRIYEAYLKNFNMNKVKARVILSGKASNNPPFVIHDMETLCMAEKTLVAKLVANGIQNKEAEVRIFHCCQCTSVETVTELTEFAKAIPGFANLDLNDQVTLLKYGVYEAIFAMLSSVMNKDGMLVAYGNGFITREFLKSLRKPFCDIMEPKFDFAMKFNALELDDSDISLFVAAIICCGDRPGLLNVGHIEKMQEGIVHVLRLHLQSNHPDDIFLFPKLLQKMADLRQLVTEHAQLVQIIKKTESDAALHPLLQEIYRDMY
As to the kind of experiment: Modulator activity at GAL4-fused human PPARalpha LBD (unknown origin) transfected in African green monkey CV1 cells assessed as receptor transactivation by luciferase reporter gene assay. The format is cell-based, CV-1.

The target in series [7] is T3, Peroxisome proliferator-activated receptor delta (Homo sapiens, UniProt Q03181).
T3 sequence (Q03181 whole entry): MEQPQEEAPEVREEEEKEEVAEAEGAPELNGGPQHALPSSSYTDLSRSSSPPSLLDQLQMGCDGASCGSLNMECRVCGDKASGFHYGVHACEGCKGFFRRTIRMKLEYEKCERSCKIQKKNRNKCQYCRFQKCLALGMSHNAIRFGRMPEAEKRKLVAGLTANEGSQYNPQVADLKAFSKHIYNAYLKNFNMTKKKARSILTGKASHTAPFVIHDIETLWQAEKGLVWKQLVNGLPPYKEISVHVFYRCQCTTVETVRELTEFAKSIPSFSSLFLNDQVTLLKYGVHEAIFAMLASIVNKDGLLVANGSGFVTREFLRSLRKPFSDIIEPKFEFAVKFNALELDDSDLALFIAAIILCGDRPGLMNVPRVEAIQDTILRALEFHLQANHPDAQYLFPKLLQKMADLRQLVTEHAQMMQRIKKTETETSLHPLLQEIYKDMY
Description: Modulator activity at GAL4-fused human PPARdelta LBD (128 to residue at C-terminus) transfected in African green monkey CV1 cells assessed as receptor transactivation by luciferase reporter gene assay

The nature of series [8]: AUC in CD-1 mouse at 1 mg/kg, iv. In kind it is ADME, organism-based. Details: dose 1 mg/kg. The note with it: in vivo.
The nature of series [9]: Half life in CD-1 mouse at 1 mg/kg, iv. The conditions noted are these: in vivo. In kind it is ADME, organism-based.

For orientation: half-life means the time needed for the level to fall by half in the phase considered. One may read the AUC as concentration integrated over time. By clearance is commonly meant the rate of elimination divided by the concentration. The term EC50 denotes the concentration that produces a half-maximal response. In [1], `Cc1cnc(-c2ccc(-c3ccco3)cc2)n1Cc1ccccc1OCCCCC(C)(C)C(=O)O` had a half-life of 144 min. In series [2], this compound displayed an AUC of 400 ng·h/mL. In [3], this compound returned a clearance of 120 mL/min/kg. Besides, in series [4], the EC50 is greater than 10 µM.

As to `C/C(=C\COc1ccccc1Cn1c(C)cnc1-c1ccc(-c2ccco2)cc1)CCC(=O)O`, the “Ratio EC50” value in series [5] is on record as greater than 1000. The half-life in [1] is 30 min. In series [2], this compound had an exposure (AUC) of 300 ng·h/mL. The compound also displayed a clearance in series [3] of 160 mL/min/kg. The figures for the concentration for a half-maximal effect (EC50) in series [6] and in series [4] were 1.23 µM and greater than 10 µM, respectively.

Turning to `C/C(=C\COc1ccccc1Cn1c(C)cnc1-c1ccc(OC(F)(F)F)cc1)CCC(=O)O`, the EC50 was 0.0003 µM in [7], 2.29 µM in series [6] and greater than 10 µM in series [4]. Besides, the AUC in series [8] was 240 ng·h/mL. This compound had a half-life in [1] of 186 min. Moreover, the clearance in series [3] was found to be 70 mL/min/kg.

On to `C/C(=C\COc1ccccc1Cc1sc(C)nc1-c1ccc(-c2ccco2)cc1)CCC(=O)O`, for which the EC50 in [7] was 0.0095 µM; in [6], 7.25 µM; in series [4], greater than 10 µM. The “Ratio EC50” value in series [5] is reported as greater than 1000. The compound also gave a half-life in [1] of 48 min. Further, the area under the curve (AUC) in [2] was determined as 900 ng·h/mL. The clearance in series [3] is 55 mL/min/kg.

In the case of `C/C(=C\COc1ccccc1Cc1c(-c2ccc(-c3ccco3)cc2)ncn1C)CCC(=O)O`, the EC50 is 0.0013 µM in series [7], 0.412 µM in series [6] and greater than 10 µM in series [4]. For the same compound, the “Ratio EC50” value in [5] was greater than 1000. In series [1], this compound showed a half-life of 48 min. In addition, the AUC in [2] came out at 170 ng·h/mL. The clearance in series [3] turned out to be 300 mL/min/kg.

For the compound `Cc1cnc(-c2ccc(-c3ccco3)cc2)n1Cc1ccccc1OCCCCCC(=O)O`, the values for the EC50 in series [7], in series [6] and in series [4] were 0.0007 µM, 6.97 µM and greater than 10 µM, respectively. Besides, in series [1], the half-life was 18 min. The compound also gave an exposure (AUC) in [2] of 180 ng·h/mL.

As for `Cc1cnc(-c2ccc(-c3ccco3)cc2)n1Cc1ccccc1OCCC[C@@H](C)CC(=O)O`, the half-life in series [1] is 84 min. The area under the curve (AUC) in [2] was determined as 650 ng·h/mL. Further, in series [3], the clearance was found to be 73 mL/min/kg. Besides, the EC50 in [6] was greater than 100 µM; in series [4] it was greater than 10 µM.

As to `Cc1cnc(-c2ccc(Cl)cc2)n1Cc1ccccc1OCCC[C@@H](C)CC(=O)O`, the 50% effective concentration (EC50) in series [7] was 0.0055 µM; in series [6], greater than 100 µM; in series [4], greater than 10 µM. The half-life in series [9] is 84 min. Also, the area under the curve (AUC) in [8] worked out at 752 ng·h/mL.

On to `Cc1ccc(-c2ncc(C)n2Cc2ccccc2OCCC[C@@H](C)CC(=O)O)cc1`, for which the 50% effective concentration (EC50) in series [7] was 0.02 µM; in series [6], 78.5 µM; in series [4] it was greater than 10 µM.

As for `C/C(=C\COc1ccccc1Cc1c(C)nnn1-c1ccc(-c2ccco2)cc1)CCC(=O)O`, the half-maximal effective concentration (EC50) is 0.0084 µM in series [7], 16.8 µM in series [6] and greater than 10 µM in [4]. Also, the “Ratio EC50” value in series [5] was greater than 1000. Further, in [1], the half-life was 12 min. This compound came in with an AUC in series [2] of 220 ng·h/mL. The clearance in series [3] was found to be 225 mL/min/kg.

Turning to `C/C(=C\COc1ccccc1Cc1c(-c2ccc(-c3ccco3)cc2)noc1C)CCC(=O)O`, the values for the EC50 in series [7], in series [6] and in [4] were 0.0015 µM, 5.84 µM and greater than 10 µM, respectively. In addition, the “Ratio EC50” value in series [5] is recorded as greater than 1000. The half-life in series [1] is 12 min. The compound also yielded an AUC in [2] of 280 ng·h/mL. The compound further yielded a clearance in [3] of 180 mL/min/kg.

In the case of `C/C(=C\COc1ccccc1Cc1c(C)n[nH]c1-c1ccc(-c2ccco2)cc1)CCC(=O)O`, in [5], the “Ratio EC50” value is greater than 1000. Moreover, in series [1], the half-life is 24 min. The area under the curve (AUC) in series [2] came out at 380 ng·h/mL. In [3], this compound had a clearance of 130 mL/min/kg. Further, the EC50 in [6] was found to be 13.1 µM; in [4] it was 5.53 µM.

`C/C(=C\COc1ccccc1Cc1c(C)ncn1-c1ccc(-c2ccco2)cc1)CCC(=O)O`: the EC50 in [7] is 0.059 µM; in series [4], greater than 10 µM. The “Ratio EC50” value in [5] is greater than 1000. The half-life in [1] was 42 min. Besides, the area under the curve (AUC) in series [2] was determined as 70 ng·h/mL. For the same compound, in [3], the clearance stood at 720 mL/min/kg.

`Cc1cnc(-c2ccc(Cl)c(F)c2)n1Cc1ccccc1OCCC[C@@H](C)CC(=O)O` gave a half-life in [9] of 258 min. Also, the exposure (AUC) in series [8] amounted to 440 ng·h/mL. Moreover, the results for the EC50 in series [6] and in series [4] were 69 µM and greater than 10 µM, respectively.

On to `Cc1cnc(-c2ccc(OC(F)F)cc2)n1Cc1ccccc1OCCC[C@@H](C)CC(=O)O`, for which the EC50 was 15.1 µM in series [6] and greater than 10 µM in [4].

With `Cc1cnc(-c2ccc(F)cc2)n1Cc1ccccc1OCCC[C@@H](C)CC(=O)O`, the values for the EC50 in series [6] and in series [4] were greater than 100 µM and greater than 10 µM, respectively.
